Reference: US20070185060A1, “Boronic acid thrombin inhibitors” (TRIGEN LIMITED, priority 2004, published 2007)

Assays:
[1] = molecular target: Plasmin (Homo sapiens, UniProt P00747); test: Plasmin inhibition, chromogenic substrate (Method B); type: biochemical
Procedure: 50 μl Plasmin (75 ng/ml in assay buffer) and 20 μl vehicle or compound solution were added to 110 μl assay buffer (100 mM Na orthophosphate (80% Na2HPO4 and 20% NaH2PO4), 200 mM NaCl, 0.5% PEG 6000, 0.02% Na azide, pH 7.5) and incubated for 5 minutes at 37° C.

[2] = molecular target: thrombin (Homo sapiens, UniProt P00734); test: Thrombin inhibition, chromogenic substrate (Method A); type: biochemical
Procedure: 50 μl thrombin (33.3 ng/ml in assay buffer) and 20 μl vehicle or compound solution were added to 110 μl assay buffer (100 mM Na orthophosphate (80% Na2HPO4 and 20% NaH2PO4), 200 mM NaCl, 0.5% PEG 6000, 0.02% Na azide, pH 7.5) and incubated for 5 minutes at 37° C.

[3] = system: T1, Trypsin; test: Trypsin inhibition, chromogenic substrate (Method C); type: biochemical; conditions: Trypsin
T1 construct: IC50; other: Trypsin; Ki
Procedure: (§1) 50 μl Trypsin (20 ng/ml in assay buffer) and 20 μl vehicle or compound solution were added to 110 μl assay buffer (100 mM Na orthophosphate (80% Na2HPO4 and 20% NaH2PO4), 200 mM NaCl, 0.5% PEG 6000, 0.02% Na azide, pH 7.5) and incubated for 5 minutes at 37° C.

[4] = system: Trypsin; test: as above; type: biochemical; conditions: Trypsin versus thrombin
Procedure: as §1

[5] = Solubility of TRI 50c monosodium salt at different pH values; type: physicochemical
Procedure: It may be desirable to make aqueous solutions of boronic acid drugs for administering them. […] However, a solution with a pH of 9.5 may be unacceptable or undesirable. Accordingly, a pharmaceutically acceptable organic acid may be included in the particulate formulation in an amount selected to reduce the pH to a value at which the solution is more acceptable but at which a solution of drinkable quantity (e.g. about 50 ml to about 150 ml) may be formed by reconstituting the particulate formulation. As the organic acid may be mentioned citric acid, tartaric acid or malic acid, for example. In many instances, citric acid is chosen.
In a first series of experiments, this amount of the salt was dissolved in 50 ml water to form a solution of approximately pH 9.5. Dilute aqueous HCl was added to determine how much the pH could be reduced before precipitation occurred.
In a second series of experiments, the same amount of the salt was dissolved in 150 ml water, and citric acid was added. […] Since acid solutions tend to be more palatable than alkaline ones, and citric acid is a common flavouring agent, this behaviour of the salt is highly beneficial. […] In general, it is contemplated that the boronate will be formulated to form a reconstituted solution having a pH of from 4 to 8, e.g. 4 to 7, optionally 5 to 6.

[6] = Stability under conditions of HPLC purity determination; type: physicochemical; conditions: sample preparation for HPLC

Plasmin, sequence (P00747 581-810 limits assumed, species assumed): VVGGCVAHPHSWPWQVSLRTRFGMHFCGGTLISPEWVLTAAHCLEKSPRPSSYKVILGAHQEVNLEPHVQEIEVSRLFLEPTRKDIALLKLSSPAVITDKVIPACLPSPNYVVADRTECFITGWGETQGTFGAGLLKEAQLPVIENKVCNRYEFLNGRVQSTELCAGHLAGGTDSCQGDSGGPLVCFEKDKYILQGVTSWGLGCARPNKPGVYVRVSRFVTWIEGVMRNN
Plasmin, sequence (P00747 97-580 partner limits assumed, species assumed): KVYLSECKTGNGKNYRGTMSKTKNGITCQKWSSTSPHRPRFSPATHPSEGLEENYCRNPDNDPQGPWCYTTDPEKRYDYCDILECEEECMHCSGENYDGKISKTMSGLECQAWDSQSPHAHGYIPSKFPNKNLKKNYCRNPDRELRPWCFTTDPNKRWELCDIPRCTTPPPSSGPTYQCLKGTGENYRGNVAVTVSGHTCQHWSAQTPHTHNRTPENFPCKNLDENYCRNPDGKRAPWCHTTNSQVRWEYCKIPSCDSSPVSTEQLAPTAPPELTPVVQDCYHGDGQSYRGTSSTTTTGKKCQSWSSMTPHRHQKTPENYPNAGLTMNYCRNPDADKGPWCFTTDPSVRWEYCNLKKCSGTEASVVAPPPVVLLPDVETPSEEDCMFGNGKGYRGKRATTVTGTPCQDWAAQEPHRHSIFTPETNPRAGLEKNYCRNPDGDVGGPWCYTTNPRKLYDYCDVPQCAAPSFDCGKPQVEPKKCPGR

COCCC[C@H](NC(=O)[C@@H]1CCCN1C(=O)[C@@H](Cc1ccc(F)cc1)NC(=O)OCc1ccccc1)B(O)O [TRI 50f, Cbz-4-F-Phe-Pro-boroMpg-OH]
IC50 ([1]; Plasmin): > 100 µM
Ki ([1]; Plasmin): > 100 µM
Selectivity ([1]; Plasmin versus thrombin): >1000
IC50 [2]: < 0.1 µM
Ki [2]: < 0.075 µM
IC50 [3]: > 10 µM
Ki [3]: > 5 µM
Selectivity [4]: >100

COCCC[C@H](NC(=O)[C@@H]1CCCN1C(=O)[C@@H](Cc1ccccc1)NC(=O)OCc1ccccc1)B(O)O.[Na+] [TRI 50c monosodium salt, Cbz-(R)-Phe-(S)-Pro-(R)-Mpg-B(OH)2 monosodium salt]
concentration of boronate salt solution that can be formed ([5]; aqueous solution at a pH of about 9.5): about 600 mg/ml
pH below which the salt tended to precipitate ([5]; salt equivalent to 600 mg TRI 50c in 50 ml water, dilute aqueous HCl added): below 9
pH to which solution could be reduced before precipitation occurred ([5]; salt equivalent to 600 mg TRI 50c in 150 ml water, citric acid added): 3.7-3.8

COCCCC(NC(=O)C1CCCN1C(=O)C(Cc1ccccc1)NC(=O)OCc1ccccc1)B1OCCNCCO1 (stereo not drawn) [TRI 50d]
stability under HPLC purity determination conditions [6]: not stable
